Measured values published in patent publication US3995059A, “Pharmaceutical compositions containing fatty acid amide derivatives” (Sumitomo Chemical Company, Limited, priority 1966, dated 1976).

Tests used:
[1] = test system: total cholesterol value in the blood serum; experiment: Total cholesterol in blood serum of mice fed a diet enriched with cholesterol and bile acids (Table 1); format: in vivo; settings: 0.2% in diet, 8 to 12 days; for Serum cholesterol: oral
Description: The effectiveness of the compounds was tested by using mice fed on a specific diet which was enriched with cholesterol and bile acids. […] The amide compound as well was mixed with the specific diet in an amount of 0.2%, and continuously administered orally for 8 to 12 days. Then the total cholesterol value in the blood serum of the animals was evaluated.

liver cholesterol = experiment: Liver cholesterol (deposition of cholesterol and fat in the liver) of mice fed a cholesterol-rich diet (Table 1); format: in vivo; settings: for Liver cholesterol: 0.2% in diet, oral, 8 to 12 days
[2] = experiment [III], control not given

## CC/C=C\C/C=C\C/C=C\CCCCCCCC(=O)NC(C)c1ccccc1 (single isomer, unassigned; (-)) [(-) (α-Methylbenzyl)-linolenamide]
[1]; experiment [II], control 521
  Serum cholesterol: 253 mg %
Liver cholesterol; experiment [II], control 3308
  Liver cholesterol: 767 mg/100 g.

## CCCCCCCC/C=C\CCCCCCCC(=O)NC(C)c1ccccc1 (single isomer, unassigned; (-)) [(-) (α-Methylbenzyl)-oleamide]
[1]; experiment [II], control 521
  Serum cholesterol: 283 mg %
Liver cholesterol; experiment [II], control 3308
  Liver cholesterol: 808 mg/100 g.

## CCCCCC=CCC=CCCCCCCCC(=O)NC(Cc1ccccc1)c1ccccc1 (centres unmarked) [C17 H31 CO]
[1]; experiment [V], control 372
  Serum cholesterol: 214 mg %
Liver cholesterol; experiment [V], control 2640
  Liver cholesterol: 544 mg/100 g.

## CCCCC/C=C\C/C=C\CCCCCCCC(=O)O [Linoleic acid, reference compound]
[1]; experiment [II], control 521
  Serum cholesterol: 329 mg %
[1]; experiment [I], control 546
  Serum cholesterol: 324 mg %
[1]; experiment [VII], control 508
  Serum cholesterol: 341 mg %
[1]; experiment [V], control 372
  Serum cholesterol: 351 mg %
[1]; mice
  ineffective cases and variation of effectiveness: ineffective cases were sometimes observed due to the individual difference of the animals, and the effectiveness varied considerably even in the same individual animal
Liver cholesterol; animals fed on a diet rich in cholesterol
  prevention of deposition of cholesterol and fat in the liver: such effectiveness is never observed
Liver cholesterol; experiment [II], control 3308
  Liver cholesterol: 4491 mg/100 g.
Liver cholesterol; experiment [I], control 3585
  Liver cholesterol: 4585 mg/100 g.
Liver cholesterol; experiment [VII], control 3535
  Liver cholesterol: 4550 mg/100 g.
Liver cholesterol; experiment [V], control 2640
  Liver cholesterol: 3124 mg/100 g.

## CCCCCC=CCC=CCCCCCCCC(=O)NC(Cc1ccccc1)c1ccccc1 (stereo not drawn) [d- C17 H31 CO]
[1]; experiment [V], control 372
  Serum cholesterol: 200 mg %
Liver cholesterol; experiment [V], control 2640
  Liver cholesterol: 500 mg/100 g.

## CCCCCCCC/C=C\CCCCCCCC(=O)NC(Cc1ccccc1)c1ccccc1 (stereo not drawn) [d- drawing 33]
[1]; experiment [V], control 372
  Serum cholesterol: 222 mg %
Liver cholesterol; experiment [V], control 2640
  Liver cholesterol: 729 mg/100 g.

## CC(C)CCCCCCCCCCCCCCC(=O)NC(Cc1ccccc1)c1ccccc1 (stereo not drawn) [d- iso-C17 H35 CO]
[1]; experiment [V], control 372
  Serum cholesterol: 209 mg %
Liver cholesterol; experiment [V], control 2640
  Liver cholesterol: 561 mg/100 g.

## CCCCCCCC/C=C\CCCCCCCC(=O)NC(C)c1ccccc1 (centres unmarked) [drawing 7]
[1]; experiment [II], control 521
  Serum cholesterol: 290 mg %
Liver cholesterol; experiment [II], control 3308
  Liver cholesterol: 815 mg/100 g.

## CCCCCCCC/C=C\CCCCCCCC(=O)NC(C)c1ccccc1 (centres unmarked) [drawing 8]
[1]; experiment [II], control 521
  Serum cholesterol: 295 mg %
Liver cholesterol; experiment [II], control 3308
  Liver cholesterol: 1330 mg/100 g.

## CCCCCCCCCCCCCC(=O)NC(C)c1ccccc1 (centres unmarked) [drawing 9]
[1]; experiment [II], control 521
  Serum cholesterol: 302 mg %
Liver cholesterol; experiment [II], control 3308
  Liver cholesterol: 1620 mg/100 g.

## CCCCCCCCCCCCCC(=O)NC(C)c1ccccc1 (centres unmarked) [drawing 10]
[1]; experiment [II], control 521
  Serum cholesterol: 252 mg %
Liver cholesterol; experiment [II], control 3308
  Liver cholesterol: 1820 mg/100 g.

## CCCCCCCCCCCCCCCC(=O)NC(C)c1ccccc1 (centres unmarked) [drawing 11]
[1]; experiment [II], control 521
  Serum cholesterol: 300 mg %
Liver cholesterol; experiment [II], control 3308
  Liver cholesterol: 906 mg/100 g.

## CCCCCCCCCCCCCCCC(=O)NC(C)c1ccccc1 (centres unmarked) [drawing 12]
[1]; experiment [II], control 521
  Serum cholesterol: 314 mg %
Liver cholesterol; experiment [II], control 3308
  Liver cholesterol: 1160 mg/100 g.

## CCCCC/C=C\C/C=C\CCCCCCCC(=O)NC(CC)c1ccccc1 (centres unmarked) [drawing 13]
[1]; experiment [II], control 521
  Serum cholesterol: 274 mg %
Liver cholesterol; experiment [II], control 3308
  Liver cholesterol: 992 mg/100 g.

## CCCCC/C=C\C/C=C\CCCCCCCC(=O)NC(CC)c1ccccc1 (centres unmarked) [drawing 14]
[1]; experiment [II], control 521
  Serum cholesterol: 302 mg %
Liver cholesterol; experiment [II], control 3308
  Liver cholesterol: 1042 mg/100 g.

## CCCCC/C=C\C/C=C\CCCCCCCC(=O)NC(C)c1ccc(Cl)cc1 (centres unmarked) [drawing 17]
[1]; experiment [III], control 471
  Serum cholesterol: 225 mg %
Liver cholesterol; [2]
  Liver cholesterol: 946 mg/100 g.

## CCCCC/C=C\C/C=C\CCCCCCCC(=O)NC(C)c1ccc(Cl)c(Cl)c1 (centres unmarked) [drawing 18]
[1]; experiment [III], control 471
  Serum cholesterol: 315 mg %
Liver cholesterol; [2]
  Liver cholesterol: 856 mg/100 g.

## CCCCC/C=C\C/C=C\CCCCCCCC(=O)NC(CC)c1ccc(C)cc1 (centres unmarked) [drawing 21]
[1]; experiment [III], control 471
  Serum cholesterol: 242 mg %
Liver cholesterol; [2]
  Liver cholesterol: 1065 mg/100 g.

## CCCCC/C=C\C/C=C\CCCCCCCC(=O)NC(C)c1ccc(C)cc1 (centres unmarked) [drawing 22]
[1]; experiment [III], control 471
  Serum cholesterol: 237 mg %
Liver cholesterol; [2]
  Liver cholesterol: 1047 mg/100 g.

## CCCCC/C=C\C/C=C\CCCCCCCC(=O)NC(C)c1ccc(C)cc1 (centres unmarked) [drawing 23]
[1]; experiment [IV], control 595
  Serum cholesterol: 240 mg %
Liver cholesterol; experiment [IV], control 3145
  Liver cholesterol: 828 mg/100 g.

## CCCCC/C=C\C/C=C\CCCCCCCC(=O)NC(CC)c1ccc(C)cc1 (centres unmarked) [drawing 24]
[1]; experiment [IV], control 595
  Serum cholesterol: 321 mg %
Liver cholesterol; experiment [IV], control 3145
  Liver cholesterol: 908 mg/100 g.

## CCCCC/C=C\C/C=C\CCCCCCCC(=O)NC(C)c1ccc(Cl)cc1 (centres unmarked) [drawing 25]
[1]; experiment [IV], control 595
  Serum cholesterol: 217 mg %
Liver cholesterol; experiment [IV], control 3145
  Liver cholesterol: 826 mg/100 g.

## CCCCC/C=C\C/C=C\CCCCCCCC(=O)NC(C)c1ccc(Cl)c(Cl)c1 (centres unmarked) [drawing 26]
[1]; experiment [IV], control 595
  Serum cholesterol: 251 mg %
Liver cholesterol; experiment [IV], control 3145
  Liver cholesterol: 1000 mg/100 g.

## CC/C=C\C/C=C\C/C=C\CCCCCCCC(=O)NC(C)c1ccccc1C (centres unmarked) [drawing 29]
[1]; experiment [IV], control 595
  Serum cholesterol: 222 mg %
Liver cholesterol; experiment [IV], control 3145
  Liver cholesterol: 913 mg/100 g.
